Laboratory results as given in PubChem BioAssay (NCI).
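Cultured in 96-well plates, cells were exposed to test compound for 48 hours across five concentrations. GI50 marks 50% less growth. Definition used: TGI = concentration required for complete inhibition of growth.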

Legend:
Assay in all cases: NCI anticancer screen, dose series, 48 h
[1] = test system: RXF 393 renal
[2] = test system: HS 578T breast
[3] = test system: CAKI-1 renal
[4] = test system: HCT-15 colon
[5] = test system: UACC-62 melanoma
[6] = test system: SK-MEL-28 melanoma
[7] = test system: SN12C renal
[8] = test system: NCI-H23 lung
[9] = test system: SK-MEL-5 melanoma
[10] = test system: SNB-19 CNS
[11] = test system: M14 melanoma
[12] = test system: DU-145 prostate
[13] = test system: HOP-62 NSCLC
[14] = test system: SW-620 colon
[15] = test system: OVCAR-3 ovarian
[16] = test system: OVCAR-8 ovarian
[17] = test system: EKVX NSCLC
[18] = test system: RPMI-8226 leukemia
[19] = test system: CCRF-CEM leukemia
[20] = test system: LOX IMVI melanoma
[21] = test system: KM12 colon
[22] = test system: MDA-MB-435
[23] = test system: SK-MEL-2 melanoma
[24] = test system: OVCAR-4 ovarian
[25] = test system: PC-3 prostate
[26] = test system: U251 CNS
[27] = test system: MCF7 breast
[28] = test system: ACHN renal
[29] = test system: MALME-3M melanoma
[30] = test system: SNB-75 CNS
[31] = test system: COLO 205 colon
[32] = test system: TK-10 renal
[33] = test system: SF-268 CNS
[34] = test system: HCT-116 colon
[35] = test system: HOP-92 NSCLC
[36] = test system: SK-OV-3 ovarian
[37] = test system: HT29 colon
[38] = test system: SF-539 CNS
[39] = test system: UO-31 renal
[40] = test system: A549 NSCLC
[41] = test system: OVCAR-5 ovarian
[42] = test system: SF-295 CNS
[43] = test system: IGROV1 ovarian
[44] = test system: MDA-MB-231 breast
[45] = test system: K-562 leukemia
[46] = test system: NCI-H226 lung
[47] = test system: NCI-H460 lung
[48] = test system: NCI-H522 lung
[49] = test system: 786-0 renal
[50] = test system: UACC-257 melanoma
[51] = test system: MOLT-4 leukemia
[52] = test system: NCI/ADR-RES ovarian
[53] = test system: T-47D breast
[54] = test system: BT-549 breast
[55] = test system: A498 renal
[56] = test system: HCC-2998 colon
[57] = test system: HL-60(TB) leukemia

Work on `O=C(CSCC(=O)N/N=C/c1ccccc1)N/N=C\c1ccccc1` yielded a TGI [1] greater than 100 µM, a TGI [2] greater than 100 µM and a TGI [3] greater than 100 µM. For the same molecule, the TGI [4] was greater than 100 µM, the TGI [5] was greater than 100 µM and the TGI [6] was greater than 100 µM. For the same molecule, the TGI [7] was greater than 100 µM, the TGI [8] was greater than 100 µM and the TGI [9] was greater than 100 µM. It also gave a TGI [10] greater than 100 µM, a TGI [11] greater than 100 µM and a TGI [12] greater than 100 µM. It also gave a TGI [13] greater than 100 µM, a TGI [14] greater than 100 µM and a TGI [15] greater than 100 µM. It also gave a TGI [16] greater than 100 µM, a TGI [17] greater than 100 µM and a TGI [18] greater than 100 µM. For the same molecule, the TGI [19] was greater than 100 µM, the TGI [20] was greater than 100 µM and the TGI [21] was greater than 100 µM. It also gave a TGI [22] greater than 100 µM, a TGI [23] greater than 100 µM and a TGI [24] greater than 100 µM. The TGI [25] was greater than 100 µM, the TGI [26] was greater than 100 µM and the TGI [27] was greater than 100 µM. The TGI [28] was greater than 100 µM, the TGI [29] was greater than 100 µM and the TGI [30] was greater than 100 µM. It also gave a TGI [31] greater than 100 µM, a TGI [32] greater than 100 µM and a TGI [33] greater than 100 µM. For the same molecule, the TGI [34] was greater than 100 µM, the TGI [35] was greater than 100 µM and the TGI [36] was greater than 100 µM. The TGI [37] was greater than 100 µM, the TGI [38] was greater than 100 µM and the TGI [39] was greater than 100 µM. The TGI [40] was greater than 100 µM, the TGI [41] was greater than 100 µM and the TGI [42] was greater than 100 µM. For the same molecule, the TGI [43] was greater than 100 µM, the TGI [44] was greater than 100 µM and the TGI [45] was greater than 100 µM. It also gave a TGI [46] greater than 100 µM, a TGI [47] greater than 100 µM and a TGI [48] greater than 100 µM. The TGI [49] was greater than 100 µM, the TGI [50] was greater than 100 µM and the TGI [51] was greater than 100 µM. The TGI [52] was greater than 100 µM, the TGI [53] was greater than 100 µM and the TGI [54] was 18.9 µM.
`COc1ccc(/C=C2\COc3ccc(O)c(O)c3C2=O)c(OC)c1OC` was tested, and the GI50 [1] was 1.87 µM, the TGI [1] was 3.54 µM and the GI50 [2] was 4.22 µM. It also gave a TGI [2] greater than 100 µM, a GI50 [3] of 2.42 µM and a TGI [3] of 11.3 µM. It also gave a GI50 [4] of 1.74 µM, a TGI [4] of 5.51 µM and a GI50 [5] of 1.88 µM. The TGI [5] was 3.88 µM, the GI50 [6] was 2.63 µM and the TGI [6] was 7.37 µM. For the same molecule, the GI50 [7] was 2.55 µM, the TGI [7] was 8.95 µM and the GI50 [8] was 3.22 µM. It also gave a TGI [8] of 14.5 µM, a GI50 [9] of 2.25 µM and a TGI [9] of 5.33 µM. For the same molecule, the GI50 [10] was 3.69 µM, the TGI [10] was 15.7 µM and the GI50 [11] was 2.39 µM. It also gave a TGI [11] of 8.93 µM, a GI50 [12] of 3.64 µM and a TGI [12] of 26 µM. For the same molecule, the GI50 [13] was 3.12 µM, the TGI [13] was 20 µM and the GI50 [14] was 2.77 µM. For the same molecule, the TGI [14] was 9.53 µM, the GI50 [15] was 2.94 µM and the TGI [15] was 11.5 µM. For the same molecule, the GI50 [16] was 3.16 µM, the TGI [16] was greater than 100 µM and the GI50 [17] was 3.65 µM. It also gave a TGI [17] of 25.8 µM, a GI50 [18] of 0.457 µM and a TGI [18] of 2.95 µM. The GI50 [20] was 1.78 µM, the TGI [20] was 3.49 µM and the GI50 [21] was 2.89 µM. The TGI [21] was 10.8 µM, the GI50 [22] was 2.21 µM and the TGI [22] was 6.57 µM. The GI50 [23] was 4.7 µM, the TGI [23] was 31.1 µM and the GI50 [24] was 2.74 µM. It also gave a TGI [24] of 17.8 µM, a GI50 [25] of 2.35 µM and a TGI [25] of 61.8 µM. It also gave a GI50 [26] of 2.66 µM, a TGI [26] of 11.2 µM and a GI50 [27] of 2.65 µM. For the same molecule, the TGI [27] was 86.5 µM, the GI50 [28] was 1.78 µM and the TGI [28] was 3.96 µM. The GI50 [29] was 1.77 µM, the TGI [29] was 4.34 µM and the GI50 [30] was 3.09 µM. For the same molecule, the TGI [30] was 86.6 µM, the GI50 [31] was 2.78 µM and the TGI [31] was 10 µM. For the same molecule, the GI50 [32] was 4.03 µM, the TGI [32] was 23.3 µM and the GI50 [33] was 3.49 µM. For the same molecule, the TGI [33] was 21.3 µM, the GI50 [34] was 1.75 µM and the TGI [34] was 3.96 µM. The GI50 [35] was 2.97 µM, the TGI [35] was 9.91 µM and the GI50 [36] was 3.24 µM. For the same molecule, the TGI [36] was greater than 100 µM, the GI50 [37] was 3.1 µM and the TGI [37] was 13.8 µM. For the same molecule, the GI50 [38] was 2.4 µM, the TGI [38] was 6.87 µM and the GI50 [39] was 1.42 µM. It also gave a TGI [39] of 3.02 µM, a GI50 [40] of 3.11 µM and a TGI [40] greater than 100 µM. The GI50 [41] was 3.64 µM, the TGI [41] was 12.8 µM and the GI50 [42] was 8.1 µM. It also gave a TGI [42] greater than 100 µM, a GI50 [43] of 2.09 µM and a TGI [43] of 7.21 µM. For the same molecule, the GI50 [55] was 5.54 µM, the TGI [55] was 20.8 µM and the GI50 [44] was 2.22 µM. For the same molecule, the TGI [44] was 7.43 µM, the GI50 [45] was 2.11 µM and the TGI [45] was greater than 100 µM. For the same molecule, the GI50 [46] was 2.66 µM, the TGI [46] was 7.25 µM and the GI50 [56] was 2.18 µM. For the same molecule, the TGI [56] was 4.48 µM, the GI50 [47] was 2.4 µM and the TGI [47] was 5.75 µM. The GI50 [48] was 0.933 µM, the TGI [48] was 3.22 µM and the GI50 [49] was 2.95 µM. The TGI [49] was 10.7 µM, the GI50 [50] was 2.88 µM and the TGI [50] was 18.3 µM. For the same molecule, the GI50 [51] was 1.87 µM, the TGI [51] was greater than 100 µM and the GI50 [53] was 2.58 µM. It also gave a TGI [53] of 9.08 µM, a GI50 [57] of 2.4 µM and a TGI [57] of 6.71 µM. For the same molecule, the GI50 [54] was 4.03 µM and the TGI [54] was 12 µM.
